Experimental data as given in patent US10201568B2, “Brain, spinal, and nerve injury treatment” (EUSTRALIS PHARMACEUTICALS LIMITED, priority 2000, dated 2019).

Tests used:
[1] = tested on: blood brain barrier permeability; assay: brain penetration of Evans blue after injury; format: in vivo; settings: at 5 hours after injury (time of maximum blood brain barrier permeability)
Description: (§1) This was consistent with the observation that N-acetyl-L-tryptophan reduced brain penetration of Evans blue at 5 hours after injury: the time associated with maximum blood brain barrier permeability and reduced vasogenic oedema formation.

brain injured animals [2] = assay: brain water accumulation (cerebral oedema) after injury; format: in vivo; settings: at 24 hours after injury, compared to vehicle treated controls
Description: as §1

[3] = limits its ability to naturally cross the blood brain barrier; cited from earlier work
brain injured animals [4] = assay: otarod test, motor outcome after brain injury; format: in vivo
Excerpt: (§2) A number of commercially synthesized substance P receptor antagonists are currently available from standard scientific chemical suppliers, as is apparent form Tables 1, 2, and 3. We chose to use the compound N-acetyl-L-tryptophan based on its low lipid solubility that limits its ability to naturally cross the blood brain barrier and the fact that it is relatively inexpensive.

brain injured animals [5] = assay: Barnes Circular Maze, cognitive outcome after brain injury; format: in vivo
Excerpt: as §2

[6] = intravenous 246 mg/kg (saline vehicle) at 30 minutes after brain injury, apparent at 24 hours, persisted for 14 day assessment period, vs vehicle

## CC(=O)N[C@@H](Cc1c[nH]c2ccccc12)C(=O)O [N-acetyl-L-tryptophan]
[1]
  brain penetration of Evans blue: reduced
Brain injured animals [2]
  brain water accumulation (i.e. cerebral oedema): significant reduction
[3]
  lipid solubility: low
Brain injured animals [4]; 24.6 mg/kg
  motor outcome: less of a beneficial effect
Brain injured animals [4]; [6]
  motor outcome as assessed by the otarod test: significant improvement
Brain injured animals [5]; 24.6 mg/kg
  cognitive outcome of brain injured animals: significantly improved
Brain injured animals [5]; [6]
  cognitive outcome as assessed by the Barnes Circular Maze: significant improvement
